Results taken from ChEMBL document CHEMBL5385895, “Design, synthesis, biological evaluation of urea substituted 1,2,5-oxadiazole-3-carboximidamides as novel indoleamine 2,3-dioxygenase-1 (IDO1) inhibitors” (Eur J Med Chem, 2023).
Calls of active or inactive are those of the source. The calls are words filed in the database; no cut-off is given here.

How the values were obtained:
[1] = molecular target: Tryptophan 2,3-dioxygenase (Homo sapiens) (UniProt P48775); experiment: Inhibition of human recombinant TDO assessed as reduction in N-formylkynurenine formation using L-tryptophan as substrate at 1 uM preincubated for 30 mins followed by substrate addition and measured after 20 mins by SpectraMax microplate reader analysis; settings: time 50.0 min
Chain of Tryptophan 2,3-dioxygenase (Homo sapiens) (P48775 whole entry, looked up): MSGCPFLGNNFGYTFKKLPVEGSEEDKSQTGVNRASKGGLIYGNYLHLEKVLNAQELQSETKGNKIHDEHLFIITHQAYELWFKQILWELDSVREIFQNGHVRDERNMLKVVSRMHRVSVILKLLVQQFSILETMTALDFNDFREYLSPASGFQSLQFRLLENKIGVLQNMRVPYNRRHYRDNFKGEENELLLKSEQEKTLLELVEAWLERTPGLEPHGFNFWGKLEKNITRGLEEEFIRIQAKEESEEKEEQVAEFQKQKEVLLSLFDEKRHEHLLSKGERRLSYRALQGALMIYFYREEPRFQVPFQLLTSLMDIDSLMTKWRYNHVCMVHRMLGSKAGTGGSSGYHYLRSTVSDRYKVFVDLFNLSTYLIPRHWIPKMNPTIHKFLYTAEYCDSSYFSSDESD

[2] = molecular target: T1, Indoleamine 2,3-dioxygenase 2 (Homo sapiens) (UniProt Q6ZQW0); experiment: Inhibition of human recombinant IDO2 assessed as reduction in N-formylkynurenine formation using L-tryptophan as substrate at 1 uM preincubated for 30 mins followed by substrate addition and measured after 20 mins by SpectraMax microplate reader analysis; settings: time 50.0 min
T1 sequence (whole entry): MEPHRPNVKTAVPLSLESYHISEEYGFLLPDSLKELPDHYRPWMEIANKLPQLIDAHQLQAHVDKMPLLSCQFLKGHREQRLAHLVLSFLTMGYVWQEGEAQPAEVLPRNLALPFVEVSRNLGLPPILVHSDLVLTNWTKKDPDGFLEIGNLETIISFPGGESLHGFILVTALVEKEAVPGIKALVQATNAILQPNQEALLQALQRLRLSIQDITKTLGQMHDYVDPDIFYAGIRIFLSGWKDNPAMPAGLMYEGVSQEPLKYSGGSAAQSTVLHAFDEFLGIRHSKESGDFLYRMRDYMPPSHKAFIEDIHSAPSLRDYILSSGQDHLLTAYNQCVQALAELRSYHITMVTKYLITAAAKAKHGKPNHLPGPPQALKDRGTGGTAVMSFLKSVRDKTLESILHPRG

[3] = molecular target: T2, Indoleamine 2,3-dioxygenase 1 (Homo sapiens, UniProt P14902); experiment: Inhibition of human recombinant IDO1 assessed as reduction in N-formylkynurenine formation using L-tryptophan as substrate preincubated for 30 mins followed by substrate addition and measured after 20 mins by SpectraMax microplate reader analysis
T2 sequence (P14902 whole entry): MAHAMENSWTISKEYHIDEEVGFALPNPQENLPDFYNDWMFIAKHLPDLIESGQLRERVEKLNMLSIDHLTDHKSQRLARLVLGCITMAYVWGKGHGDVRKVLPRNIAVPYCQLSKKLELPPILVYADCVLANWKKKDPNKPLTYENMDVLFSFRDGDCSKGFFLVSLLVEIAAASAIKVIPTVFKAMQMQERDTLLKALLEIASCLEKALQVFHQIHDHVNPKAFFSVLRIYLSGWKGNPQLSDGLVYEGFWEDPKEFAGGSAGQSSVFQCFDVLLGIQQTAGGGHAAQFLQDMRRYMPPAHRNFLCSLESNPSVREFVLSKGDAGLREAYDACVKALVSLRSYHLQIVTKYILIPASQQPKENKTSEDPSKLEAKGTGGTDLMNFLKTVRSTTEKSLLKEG

[4] = molecular target: T2, Indoleamine 2,3-dioxygenase 1; experiment: Inhibition of IDO1 in IFN-gamma-induced human HeLa cells assessed as reduction in N-formylkynurenine formation using L-tryptophan as substrate preincubated for 24 hrs followed by substrate addition and measured after 30 mins by SpectraMax microplate reader analysis; assay type: cell-based
HCT-116 = experiment: cells; settings: Homo sapiens, HCT-116, 24 h
HeLa = experiment: cells; settings: Homo sapiens, 24 h
cells = settings: Mus musculus, Lung cancer cell line, 24 h
CT26 = experiment: cells; settings: Mus musculus, CT26, 24 h
[5] = Volume of distribution in Sprague-Dawley rat at 5 mg/kg, iv by LC-MS/MS analysis; assay type: ADME, organism-based; settings: in vivo
[6] = Oral bioavailability in Sprague-Dawley rat at 25 mg/kg by LC-MS/MS analysis; assay type: ADME, organism-based; settings: in vivo
[7] = Apparent permeability of the compound across basolateral to apical side in dog MDCKII cells measured for 2 hrs by LC-MS/MS analysis; assay type: ADME, cell-based, Canis lupus familiaris, MDCK-II; settings: MDCK
[8] = Half life in Sprague-Dawley rat at 25 mg/kg, po by LC-MS/MS analysis; assay type: ADME, organism-based; settings: in vivo
[9] = Plasma clearance in Sprague-Dawley rat at 5 mg/kg, iv by LC-MS/MS analysis; assay type: ADME, organism-based
[10] = AUC (0 to t) in Sprague-Dawley rat at 25 mg/kg, po by LC-MS/MS analysis; assay type: ADME, organism-based; parameters: dose 25 mg/kg, route po; settings: in vivo
[11] = Tmax in Sprague-Dawley rat at 25 mg/kg, po by LC-MS/MS analysis; assay type: ADME, organism-based; settings: in vivo
[12] = Cmax in Sprague-Dawley rat at 5 mg/kg, iv by LC-MS/MS analysis; assay type: ADME, organism-based; parameters: dose 5 mg/kg, route iv; settings: in vivo
[13] = AUC (0 to infinity) in Sprague-Dawley rat at 5 mg/kg, iv by LC-MS/MS analysis; assay type: ADME, organism-based; parameters: dose 5 mg/kg, route iv; settings: in vivo
[14] = Tmax in Sprague-Dawley rat at 5 mg/kg, iv by LC-MS/MS analysis; assay type: ADME, organism-based; settings: in vivo
[15] = AUC (0 to t) in Sprague-Dawley rat at 5 mg/kg, iv by LC-MS/MS analysis; assay type: ADME, organism-based; parameters: dose 5 mg/kg, route iv; settings: in vivo
[16] = Apparent permeability of the compound across apical to basolateral side in dog MDCK-II cells measured for 2 hrs by LC-MS/MS analysis; assay type: ADME, cell-based, Canis lupus familiaris
[17] = Half life in Sprague-Dawley rat at 5 mg/kg, iv by LC-MS/MS analysis; assay type: ADME, organism-based; settings: in vivo
[18] = AUC (0 to infinity) in Sprague-Dawley rat at 25 mg/kg, po by LC-MS/MS analysis; assay type: ADME, organism-based; parameters: dose 25 mg/kg, route po; settings: in vivo

Structure (SMILES)	inhibition [1]	inhibition [2]	IC50 [3]	IC50 [4]	further results
COc1ccccc1NC(=O)Nc1nonc1/C(=N/O)Nc1ccc(F)c(Br)c1	inactive	inactive	0.298 µM		
O=C(NCCO)Nc1nonc1/C(=N/O)Nc1ccc(F)c(Br)c1	inactive	inactive	> 1 µM		
NCCCNC(=O)Nc1nonc1/C(=N/O)Nc1ccc(F)c(Br)c1	inactive	inactive	> 1 µM		
CN(C)C(=O)Nc1nonc1/C(=N/O)Nc1ccc(F)c(Br)c1	inactive	inactive	0.347 µM		
COc1ccc(NC(=O)Nc2nonc2/C(=N/O)Nc2ccc(F)c(Br)c2)cc1	inactive	inactive	0.148 µM	0.0437 µM	
NCCNC(=O)Nc1nonc1/C(=N/O)Nc1ccc(F)c(Br)c1	inactive	inactive	> 1 µM		
O=C(Nc1nonc1/C(=N/O)Nc1ccc(F)c(Br)c1)N1CCCC1	inactive	inactive	> 1 µM		
O=C(Nc1ccc(Br)cc1)Nc1nonc1/C(=N/O)Nc1ccc(F)c(Br)c1	inactive	inactive	0.224 µM	0.0687 µM	
COc1ccc(NC(=O)Nc2nonc2/C(=N/O)Nc2ccc(F)c(Br)c2)cc1OC	inactive	inactive	0.331 µM		
CCCNC(=O)Nc1nonc1/C(=N/O)Nc1ccc(F)c(Br)c1	inactive	inactive	0.222 µM	0.0923 µM	
O=C(Nc1ccc(Cl)cc1)Nc1nonc1/C(=N/O)Nc1ccc(F)c(Br)c1	inactive	inactive	0.311 µM		
CN1CCN(C(=O)Nc2nonc2/C(=N/O)Nc2ccc(F)c(Br)c2)CC1	inactive	inactive	0.612 µM		
COc1cccc(NC(=O)Nc2nonc2/C(=N/O)Nc2ccc(F)c(Br)c2)c1	inactive	inactive	0.183 µM	0.111 µM	
O=C(NCC1CCC1)Nc1nonc1/C(=N/O)Nc1ccc(F)c(Br)c1	inactive	inactive	0.109 µM	0.0411 µM	
CC(C)NC(=O)Nc1nonc1/C(=N/O)Nc1ccc(F)c(Br)c1	inactive	inactive	0.0826 µM	0.0582 µM	
CN(C)CCNC(=O)Nc1nonc1/C(=N/O)Nc1ccc(F)c(Br)c1	inactive	inactive	> 1 µM		
O=C(NCC1CC1)Nc1nonc1/C(=N/O)Nc1ccc(F)c(Br)c1	inactive	inactive	0.077 µM	0.0302 µM	IC50 (HCT-116): 55.1 µM; IC50 (HeLa): 54.3 µM; IC50 (cells): > 50 µM; IC50 (CT26): > 80 µM

Structure (SMILES)	inhibition [1]	inhibition [2]	IC50 [3]	IC50 [4]	further results
NCCCCNC(=O)Nc1nonc1/C(=N/O)Nc1ccc(F)c(Br)c1	inactive	inactive	> 1 µM		
O=C(Nc1nonc1/C(=N/O)Nc1ccc(F)c(Br)c1)NC1CCCC1	inactive	inactive	0.314 µM		
O=C(Nc1nonc1/C(=N/O)Nc1ccc(F)c(Br)c1)N1CCC1	inactive	inactive	0.632 µM		
O=C(Nc1nonc1/C(=N/O)Nc1ccc(F)c(Br)c1)NC1CCCCC1	inactive	inactive	0.544 µM		
O=C(Nc1nonc1/C(=N/O)Nc1ccc(F)c(Br)c1)NC1CC1	inactive	inactive	0.0793 µM	0.0365 µM	
CNC(=O)Nc1nonc1/C(=N/O)Nc1ccc(F)c(Br)c1	inactive	inactive	0.118 µM	0.0446 µM	
O=C(Nc1nonc1/C(=N/O)Nc1ccc(F)c(Br)c1)NC1CCC1	inactive	inactive	0.166 µM	0.0317 µM	
O=C(NCC1CCCCC1)Nc1nonc1/C(=N/O)Nc1ccc(F)c(Br)c1	inactive	inactive	0.847 µM		
O=C(Nc1nonc1/C(=N/O)Nc1ccc(F)c(Br)c1)N1CCCCC1	inactive	inactive	> 1 µM		
CCCCNC(=O)Nc1nonc1/C(=N/O)Nc1ccc(F)c(Br)c1	inactive	inactive	0.159 µM	0.103 µM	
CC(C)CNC(=O)Nc1nonc1/C(=N/O)Nc1ccc(F)c(Br)c1	inactive	inactive	0.0963 µM	0.0417 µM	
NS(=O)(=O)NCCNc1nonc1C(=NO)Nc1ccc(F)c(Br)c1 [EPACADOSTAT]					Vd [5]: 5.73 L/kg; bioavailability [6]: 12.4%; Papp B→A at 2 h [7]: 7.36 ×10⁻⁶ cm/s; half-life [8]: 133 min; clearance [9]: 102 mL/min/kg; AUC(0-t) [10]: 472 ng·h/mL; Tmax [11]: 18.6 min; Cmax [12]: 2430 ng/mL; AUC(0-inf) [13]: 856 ng·h/mL; Tmax [14]: 1.98 min; AUC(0-t) [15]: 836 ng·h/mL; Papp A→B at 2 h [16]: 3.12 ×10⁻⁶ cm/s; half-life [17]: 38.4 min; AUC(0-inf) [18]: 530 ng·h/mL
O=C(Nc1ccc(F)cc1)Nc1nonc1/C(=N/O)Nc1ccc(F)c(Br)c1	inactive	inactive	0.208 µM	0.0517 µM	
O=C(Nc1ccccc1)Nc1nonc1/C(=N/O)Nc1ccc(F)c(Br)c1	inactive	inactive	0.197 µM	0.0495 µM	
COCCCNC(=O)Nc1nonc1/C(=N/O)Nc1ccc(F)c(Br)c1	inactive	inactive	> 1 µM		
O=C(Nc1nonc1/C(=N/O)Nc1ccc(F)c(Br)c1)N1CCC(O)C1 (stereo not drawn)	inactive	inactive	> 1 µM		
